From patent US7883708B2, “Substance derived from basidiomycetes culture, method for producing it and its use” (Amino Up Chemical Co., Ltd., priority 1999, dated 2011)
In brackets after ≈: the same amount, converted by molar mass.

How the values were obtained:
Assay in all cases: 50% growth suppression concentration (IC50) of tumor cells (MTT)
Assay type in all cases: cell-based
[1] = test system: 3LL mouse lung cancer cells; conditions: 48 hours, read-out: IC50 (μg/ml) 3LL
Source text: (§1) 3LL mouse lung cancer cells, Colon 26 mouse colorectal cancer cells, PC3 human prostatic cancer cells, Du145 human prostatic cells, and LNCAP human prostatic cells were used and 50% suppression concentrations (IC50) of Invention Substance 1, genistein standard preparation (produced by Sigma) and basidiomycetes culture (product obtained by cultivating basidiomycetes in the absence of isoflavones-containing material under the same conditions as in Example 1) on these cells were examined.
(§2) That is, Invention Substance 1, genistein standard preparation or basidiomycetes culture was suspended in distilled water and were autoclaved and added to the cells in a continuously varied concentration of from 1,000 μg/ml to 0.1 μg/ml. The tumor cell suspension was adjusted to 1-2×10^5 cells/well with DMEM medium containing 10% FBS and cultivated at 37° C. for 48 hours. Then, after addition of Invention Substance 1 or genistein standard preparation, the cells were further cultivated for additional 48 hours, followed by examining cell growth by the MTT method using a microplate reader. Lower numerical values indicate that 50% suppression of the growth of cultured cancer cells is possible at lower concentrations.

[2] = test system: Du145 human prostatic cells; conditions: DU-145, 48 hours, read-out: IC50 (μg/ml) Du145
Source text: as §1, §2

[3] = test system: LNCAP human prostatic cells; conditions: 48 hours, read-out: IC50 (μg/ml) LNCaP
Source text: as §1, §2

[4] = test system: PC3 human prostatic cancer cells; conditions: 48 hours, read-out: IC50 (μg/ml) PC3
Source text: as §1, §2

[5] = test system: Colon 26 mouse colorectal cancer cells; conditions: 48 hours, read-out: IC50 (μg/ml) Colon 26
Source text: as §1, §2

O=c1c(-c2ccc(O)cc2)coc2cc(O)cc(O)c12 [Genistein standard preparation, genistein]
IC50 [1]: 31.8 µg/mL (≈ 118 µM)
IC50 [2]: 55.3 µg/mL (≈ 205 µM)
IC50 [3]: 69.4 µg/mL (≈ 257 µM)
IC50 [4]: 35.8 µg/mL (≈ 132 µM)
IC50 [5]: 51.2 µg/mL (≈ 190 µM)
